Laboratory results reported in patent publication US20060199832A1, “Use of non-immunosupressive pipecolic acid derivatives for inducing chondrogenic differentiation” (Astellas Pharma Inc., priority 2003, published 2006).

Test system: ATDC5 cells
Assay: Induction of chondrogenic differentiation of ATDC5 cells (Alcian blue staining of proteoglycan)
Type: cell-based
Details: ATDC5 cells incubated for 24 days; compound (1) at 1-10000 ng/ml; results in FIG. 1
Description: The inducing activity by the compound (1) on chondrogenic differentiation was evaluated in accordance with the below-mentioned method.
(1) The ATDC5 cell line provided by RIKEN Cell Bank (Tsukuba, Japan) was grown in a 1:1 mixture of Dulbecco's modified Eagle's medium and Ham's F12 medium (Nikken Biomedical Laboratory, Kyoto, Japan) supplemented with 10% heat-inactivated fetal bovine serum (Intergen, Purchase, N.Y.).
(2) The above ATDC5 cells were plated in 12-multiwell plastic plate at a density of 1×10^5 cells/well in the medium. After 4 hr, the medium was replaced with fresh medium containing the compound (1) or Cyclosporin A (CsA), and the culture was continued for a 24 days with medium change every 2 or 3 days. Cells were fixed with methanol and stained 0.1% Alcian blue (Sigma Chemical Co., St. Louis, Mo.) dissolved in 0.1 M hydrochloric acid for 16 hr at room temperature. Cells were then rinsed three times with distilled water, and the amount of cell-associated dye was measured at 620 nm after extraction with 6 M guanidine-HCl (300 μl/well)
ATDC5 cells were incubated with the compound (1) or CsA for 24 days and the amount of proteoglycan was assayed.

COC1CC(/C=C(\C)C2OC(=O)C3CCCCN3C(=O)C(=O)C3(O)OC(C(OC)CC(C)C/C(C)=C/C(CC(C)=O)C(=O)CC(O)C2C)C(OC)CC3C)CCC1O (centres unmarked) [compound (1)]
chondrogenic differentiation (amount of proteoglycan, cell-associated Alcian blue dye measured at 620 nm): induced differentiation into chondrocyte in a concentration-dependent manner

Cyclosporin A [CsA]
chondrogenic differentiation (amount of proteoglycan, cell-associated Alcian blue dye measured at 620 nm): did not induce the differentiation
